The values that follow come from US20230416237A1, “AMIDE COMPOUND, PHARMACEUTICAL COMPOSITION AND USE THEREOF” (SHENZHEN BO LI JIAN MEDICINE CO., LTD., priority 2020, published 2023).

The target in one assay is JAK2 (Homo sapiens (Human), UniProt O60674). The experiment in a line: JAK2 inhibitory activity, mobility shift assay, 1 mM ATP. The assay is classed as biochemical. The conditions noted are these: Table 7. The protocol: (§1) The JAK1 inhibitory activity and the JAK2 inhibitory activity of the amide compounds provided in the above examples were tested by the method below.
(§2) Specific steps are described below. • 1. A 1× Kinase buffer was formulated. • 2. Concentration gradients of the compound were formulated: a test compound with an initial concentration of 10000 nM (JAK1) or 30000 nM (JAK2) was diluted in a 384-well plate to a 100% DMSO solution with a 100-fold final concentration, wherein the compound was diluted by a fold of 3 to 10 concentrations. 250 nL of the compound with the 100-fold final concentration was transferred with a dispenser Echo 550 to the target plate. • 3. A kinase solution with a 2.5-fold final concentration was prepared with the 1× Kinase buffer. • 4. […] The plate was centrifuged at 1000 rpm for 30 s, shaken and uniformly mixed, and incubated for 10 min at room temperature. • 6. A mixed solution of ATP (the final concentration of ATP=1 mM) and Kinase substrate with a 5/3-fold final concentration was formulated with the 1× Kinase buffer. • 7. 15 μL of the mixed solution of ATP and the substrate with the 5/3-fold final concentration was added to initiate the reaction. • 8. The 384-well plate was centrifuged at 1000 rpm for 30 s, shaken and uniformly mixed, and incubated for respective times at room temperature. • 9. The kinase reaction was stopped by adding 30 μL of a detection termination solution, and the plate was centrifuged at 1000 rpm for 30 s and shaken and uniformly mixed. • 10. The conversion rate was read with Caliper EZ Reader and the half maximal inhibitory concentration (IC50) was calculated.

The target of another assay is JAK1 (Homo sapiens (Human), UniProt P23458). Put plainly: JAK1 inhibitory activity, mobility shift assay, 1 mM ATP. The conditions noted are these: 1 mM ATP; Table 7. The assay is classed as biochemical. The procedure:
as §1, §2

Bounds are passed on as bounds.

For orientation: IC50 means the midpoint of a concentration-inhibition curve.

Sequence of JAK1 (P23458 850-1154): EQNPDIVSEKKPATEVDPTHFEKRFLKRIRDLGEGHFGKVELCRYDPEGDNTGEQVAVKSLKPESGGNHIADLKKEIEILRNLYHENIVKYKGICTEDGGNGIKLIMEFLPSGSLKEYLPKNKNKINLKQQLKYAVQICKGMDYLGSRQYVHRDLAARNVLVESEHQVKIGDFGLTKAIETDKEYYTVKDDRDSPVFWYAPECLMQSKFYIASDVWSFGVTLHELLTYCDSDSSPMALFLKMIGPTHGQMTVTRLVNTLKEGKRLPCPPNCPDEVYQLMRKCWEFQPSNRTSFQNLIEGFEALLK
Sequence of JAK2 (O60674 826-1132): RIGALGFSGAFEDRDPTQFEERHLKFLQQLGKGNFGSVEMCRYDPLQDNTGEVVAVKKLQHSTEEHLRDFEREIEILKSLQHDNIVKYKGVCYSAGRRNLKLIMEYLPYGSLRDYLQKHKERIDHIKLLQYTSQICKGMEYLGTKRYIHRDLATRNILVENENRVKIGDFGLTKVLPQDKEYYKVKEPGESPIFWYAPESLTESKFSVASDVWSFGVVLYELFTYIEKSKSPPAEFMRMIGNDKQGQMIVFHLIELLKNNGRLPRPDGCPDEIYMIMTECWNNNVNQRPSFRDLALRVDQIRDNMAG

For `COc1nn(C)cc1Nc1nccc(-c2c[nH]c3c(NC(=O)[C@H]4C[C@H](F)CN4[C@@H]4CCNC4)cccc23)n1` (single isomer, unassigned) [Example 18], the IC50 on JAK2 came to 10200 nM; at JAK1, 108 nM.
The matching figures for `COc1nn(C)cc1Nc1nccc(-c2c[nH]c3c(NC(=O)[C@H]4C[C@H](F)CN4[C@H]4CCNC4)cccc23)n1` (single isomer, unassigned) [Example 19]: 15500 nM and 368 nM.
As to `COc1nn(C)cc1Nc1nccc(-c2c[nH]c3c(NC(=O)[C@H]4C[C@H](F)CN4[C@@H]4CCN(C)C4)cccc23)n1` (single isomer, unassigned) [Example 20], the figures for the IC50 on JAK2 and at JAK1 were 21500 nM and 120 nM, respectively.
`COc1nn(C)cc1Nc1nccc(-c2c[nH]c3c(NC(=O)[C@H]4C[C@H](F)CN4[C@H]4CCN(C)C4)cccc23)n1` (single isomer, unassigned) [Example 21]: the figures for the IC50 at JAK2 and on JAK1 were more than 30000 nM and 262 nM, respectively.
The matching figures for `COc1nn(C)cc1Nc1ncc(F)c(-c2c[nH]c3c(NC(=O)[C@@H]4CCCN4S(C)(=O)=O)cccc23)n1` [Example 1, (S)—N-(3-(5-fluoro-2-((3-methoxy-1-methyl-1H-pyrazol-4-yl)amino)pyrimidin-4-yl)-1H-indol-7-yl)-1-(methanesulfonyl)pyrrolidine-2-carboxamide]: 2820 nM and 73 nM.
Take `CCS(=O)(=O)N1CCC[C@H]1C(=O)Nc1cccc2c(-c3nc(Nc4cn(C)nc4OC)ncc3F)c[nH]c12` [Example 2, (S)-N-(3-(5-fluoro-2-((3-methoxy-1-methyl-1H-pyrazol-4-yl)amino)pyrimidin-4-yl)-1H-indol-7-yl)-1-(ethanesulfonyl)pyrrolidine-2-carboxamide]: the IC50 amounted to 1850 nM on JAK2 and 137 nM on JAK1.
In the same order, the values of `COc1nn(C)cc1Nc1ncc(C)c(-c2c[nH]c3c(NC(=O)[C@@H]4CCCN4S(C)(=O)=O)cccc23)n1` [Example 3, (S)-N-(3-(2-((3-methoxy-1-methyl-1H-pyrazol-4-yl)amino)-5-methylpyrimidin-4-yl)-1H-indol-7-yl)-1-(methanesulfonyl)pyrrolidine-2-carboxamide] are 2210 nM and 70 nM.
In the same order, the values of `COc1nn(C)cc1Nc1ncc(Cl)c(-c2c[nH]c3c(NC(=O)[C@@H]4CCCN4S(C)(=O)=O)cccc23)n1` [Example 4, (S)-N-(3-(5-chloro-2-((3-methoxy-1-methyl-1H-pyrazol-4-yl)amino)pyrimidin-4-yl)-1H-indol-7-yl)-1-(methanesulfonyl)pyrrolidine-2-carboxamide] are 652 nM and 53 nM.
In the same order, the values of `COc1nn(C)cc1Nc1ncc(F)c(-c2c[nH]c3c(NC(=O)[C@H]4CCCN4C4CCNCC4)cccc23)n1` [Example 5, (R)—N-(3-(5-fluoro-2-((3-methoxy-1-methyl-1H-pyrazol-4-yl)amino)pyrimidin-4-yl)-1H-indol-7-yl)-1-(piperidin-4-yl)pyrrolidine-2-carboxamide] are 4300 nM and 55 nM.
On to `COc1nn(C)cc1Nc1ncc(F)c(-c2c[nH]c3c(NC(=O)[C@H]4C[C@H](F)CN4C4CCNCC4)cccc23)n1` [Example 6, (2R,4S)-4-fluoro-N-(3-(5-fluoro-2-((3-methoxy-1-methyl-1H-pyrazol-4-yl)amino)pyrimidin-4-yl)-1H-indol-7-yl)-1-(piperidin-4-yl)pyrrolidine-2-carboxamide], for which the IC50 turned out to be 4000 nM at JAK2 and 68 nM on JAK1.
The matching figures for `COc1nn(C)cc1Nc1ncc(F)c(-c2c[nH]c3c(NC(=O)[C@H]4C[C@@H](F)CN4C4CCNCC4)cccc23)n1` [Example 7, (2R,4R)-4-fluoro-N-(3-(5-fluoro-2-((3-methoxy-1-methyl-1H-pyrazol-4-yl)amino)pyrimidin-4-yl)-1H-indol-7-yl)-1-(piperidin-4-yl)pyrrolidine-2-carboxamide]: 4410 nM and 152 nM.
In the same order, the values of `COc1nn(C)cc1Nc1ncc(F)c(-c2c[nH]c3c(NC(=O)[C@H]4C[C@@H](OC)CN4C4CCNCC4)cccc23)n1` [Example 8, (2R,4R)-N-(3-(5-fluoro-2-((3-methoxy-1-methyl-1H-pyrazol-4-yl)amino)pyrimidin-4-yl)-1H-indol-7-yl)-4-methoxy-1-(piperidin-4-yl)pyrrolidine-2-carboxamide] are 10500 nM and 1170 nM.
Consider `COc1nn(C)cc1Nc1ncc(F)c(-c2c[nH]c3c(NC(=O)[C@H]4C[C@H](OC)CN4C4CCNCC4)cccc23)n1` [Example 9, (2R,4S)-N-(3-(5-fluoro-2-((3-methoxy-1-methyl-1H-pyrazol-4-yl)amino)pyrimidin-4-yl)-1H-indol-7-yl)-4-methoxy-1-(piperidin-4-yl)pyrrolidine-2-carboxamide], for which the IC50 on JAK2 stood at 5000 nM; at JAK1 it was 51 nM.
The matching figures for `COc1nn(C)cc1Nc1ncc(F)c(-c2c[nH]c3c(NC(=O)[C@H]4CCCN4C4CCN(C)CC4)cccc23)n1` [Example 10, (R)-N-(3-(5-fluoro-2-((3-methoxy-1-methyl-1H-pyrazol-4-yl)amino)pyrimidin-4-yl)-1H-indol-7-yl)-1-(1-methylpiperidin-4-yl)pyrrolidine-2-carboxamide]: 14600 nM and 104 nM.
On to `COc1nn(C)cc1Nc1ncc(C)c(-c2c[nH]c3c(NC(=O)[C@H]4CCCN4C4CCN(C)CC4)cccc23)n1` [Example 11, (R)-N-(3-(2-((3-methoxy-1-methyl-1H-pyrazol-4-yl)amino)-5-methylpyrimidin-4-yl)-1H-indol-7-yl)-1-(1-methylpiperidin-4-yl)pyrrolidine-2-carboxamide], for which the IC50 turned out to be 12100 nM at JAK2 and 69 nM on JAK1.
As for `CCO[C@H]1C[C@H](C(=O)Nc2cccc3c(-c4nc(Nc5cn(C)nc5OC)ncc4C)c[nH]c23)N(C2CCN(C)CC2)C1` [Example 12, (2R,4S)-4-ethoxy-N-(3-(2-((3-methoxy-1-methyl-1H-pyrazol-4-yl)amino)-5-methylpyrimidin-4-yl)-1H-indol-7-yl)-1-(1-methylpiperidin-4-yl)pyrrolidine-2-carboxamide], the results for the IC50 at JAK2 and on JAK1 were 12000 nM and 103 nM, respectively.
On to `COc1nn(C)cc1Nc1ncc(C)c(-c2c[nH]c3c(NC(=O)[C@H]4C[C@H](OC)CN4C4CCN(C)CC4)cccc23)n1` [Example 13, (2R,4S)-4-methoxy-N-(3-(2-((3-methoxy-1-methyl-1H-pyrazol-4-yl)amino)-5-methylpyrimidin-4-yl)-1H-indol-7-yl)-1-(1-methylpiperidin-4-yl)pyrrolidine-2-carboxamide], for which the IC50 was 14500 nM on JAK2 and 101 nM at JAK1.
In the same order, the values of `COc1nn(C)cc1Nc1ncc(C)c(-c2c[nH]c3c(NC(=O)[C@H]4C[C@H](F)CN4C4CCN(C)CC4)cccc23)n1` [Example 14, (2R,4S)-4-fluoro-N-(3-(2-((3-methoxy-1-methyl-1H-pyrazol-4-yl)amino)-5-methylpyrimidin-4-yl)-1H-indol-7-yl)-1-(1-methylpiperidin-4-yl)pyrrolidine-2-carboxamide] are 6620 nM and 41 nM.
In the case of `COc1nn(C)cc1Nc1ncc(Cl)c(-c2c[nH]c3c(NC(=O)[C@H]4CCCN4C4CCN(C)CC4)cccc23)n1` [Example 15, (R)-N-(3-(5-chloro-2-((3-methoxy-1-methyl-1H-pyrazol-4-yl)amino)pyrimidin-4-yl)-1H-indol-7-yl)-1-(1-methylpiperidin-4-yl)pyrrolidine-2-carboxamide], the half-maximal inhibitory concentration (IC50) on JAK2 was 3640 nM; at JAK1, 27 nM.
In the same order, the values of `COc1nn(C)cc1Nc1ncc(C)c(-c2c[nH]c3c(NC(=O)[C@H]4CC(F)(F)CN4C4CCN(C)CC4)cccc23)n1` [Example 16, (R)-4,4-difluoro-N-(3-(2-((3-methoxy-1-methyl-1H-pyrazol-4-yl)amino)-5-methylpyrimidin-4-yl)-1H-indol-7-yl)-1-(1-methylpiperidin-4-yl)pyrrolidine-2-carboxamide] are 3340 nM and 40 nM.
As for `COc1nn(C)cc1Nc1nccc(-c2c[nH]c3c(NC(=O)[C@H]4CC(F)(F)CN4C4CCN(C)CC4)cccc23)n1` [Example 17, (R)-4,4-difluoro-N-(3-(2-((3-methoxy-1-methyl-1H-pyrazol-4-yl)amino)pyrimidin-4-yl)-1H-indol-7-yl)-1-(1-methylpiperidin-4-yl)pyrrolidine-2-carboxamide], the IC50 on JAK2 was determined as 10500 nM; on JAK1, 216 nM.
The matching figures for `COc1nn(C)cc1Nc1ncc(F)c(-c2c[nH]c3c(NC(=O)[C@H]4CCCN4[C@@H]4CCNC4)cccc23)n1` [Example 22, (2R,3′R)-N-(3-(5-fluoro-2-((3-methoxy-1-methyl-1H-pyrazol-4-yl)amino)pyrimidin-4-yl)-1H-indol-7-yl)-[1,3′-bipyrrolidine]-2-carboxamide]: 7280 nM and 46 nM.
